This is an account of results in paper PMC8877233, “The Hydrophobicity and Antifungal Potentiation of Burkholdine Analogues” (Molecules, 2022).

A word on the MIC90: it is the lowest concentration that inhibits either 90% of growth or 90% of the strains tested, depending on the study. Usually MIC stands for the lowest concentration found to suppress growth.

One series has as its system Candida albicans. The following applies: cited from earlier work. An excerpt:
The burkholdines (Bks) are a family of 25-membered cyclic lipopeptides composed of eight amino acids arranged in a lactam ring bearing a lipophilic side chain, which were first isolated from the proteobacteria Burkholderia ambifaria 2.2N by Schmidt in 2010 [1, 2, 3, 4]. […] The mechanism of this activity is thought to entail the inhibition of fungal β-glucan synthase, as is the case for the candine anti ...

For series [1], the system named is S. cerevisiae. As to the kind of experiment: Potentiation assay with G418. The class given is cell-based. The following applies: for potentiation of the effect of G418: S. cerevisiae, peptide dose 100 µg/mL, result in words. As for the experimental part:
(§1) Two antibiotics with different mechanisms of action can have a synergistic effect, together exerting an antifungal activity higher than the sum of their individual activities. Accordingly, the potentiation of the antifungal effect of G418 (Geneticin), an aminoglycosyl-type antibiotic that inhibits protein biosynthesis by binding to the ribosome 70S and 80S subunits, and zeocin (phleomucin D1), a glycopeptide antibiotic and DNA intercalator, by cyclic peptides (3a)–(8) was evaluated. Although the relatively high PSA and negative logP values of Bk analogues (3a)–(8) are not conductive to cell penetration, there was the possibility that their fatty side chains have an affinity for cell surfaces. […] The mechanism of action is not clear, but it is possible that the interaction of the cyclic peptides (3a)–(8) with the cell wall increases its susceptibility to penetration by G418.
The prepared test bacteria (50 µL) were placed in well A1–A12 of a 96-well plate. G418 (200 mg/mL, 108321-42-2, Nacalai tesque, Japan) in H2O, then medium […] was added to A1, pipetting was performed, and 50 µL was extracted from A1 and placed in A2. This operation was repeated until A11, and 50 µL extracted from A11 was discarded. After 30 min, Bk analogue (200 μg/mL) in medium […] was added to each solution (final concentration = 100 μg/mL). The well plate was closed and incubated at 30 °C. After 24 h, the MIC and potentiation values were evaluated.

A short description of series [2]: RP-HPLC retention time as measure of hydrophilicity/hydrophobicity. The settings on record: chromatographic, Cosmosil 5C18-AR-II 4.6 x 150 mm, linear gradient 30–70% MeCN/H2O (0.1% TFA) for 30 min, 1 mL/min, UV 220 nm. Type of series: physicochemical. The procedure:
[…] In all cases, the retention times of the (S)-Dab-containing peptides were shorter than those of the (R)-Dab-containing peptides, which were similar to those bearing L-Orn. The retention times of the cyclic peptides were shorter for Tat > D-Ser > L-Thr > L-Ser, while peptides bearing the undecanoic acid moiety eluted […] than those bearing the decanoic acid by about 2 min.

Series [3] has as its system S. cerevisiae (ATCC204504). Type of series: cell-based. The following applies: ATCC204504, 24 h. As for the experimental part:
Bacto yeast extract (0.63 g, 70161, Fluka, Barcelona, Spain), peptone (1.00 g, 26421, Mikuni, Japan), and glucose (1.00 g, 16806-25, Nacalai tesque, Japan) were added to H2O (50 mL) at room temperature and the mixture was heated to 60 °C. After 30 min, the mixture was sterilized by heating in an autoclave at 121 °C for 20 min.
DMSO (8 µL, 13406-55, Nacalai tesque, Japan) was added to YPD medium (750 µL). The test fungus culture solution (3 µL) was added to this solution (1.5 mL).
The inhibitor (each 1.0 mg; 3a–h, 4a–b, 5a–b, 6a–b, 7, 8) was dissolved in DMSO (40 µL).
The prepared test bacteria (50 µL) were placed in A1–A12 of a 96-well plate. Bk analogue (50 µL) was added to A1, pipetting was performed, and then 50 µL was extracted from A1 and placed in A2. This operation was repeated until A11, and 50 µL extracted from A11 was discarded. The well plate was closed and incubated at 30 °C. After 24 h, the MIC values were evaluated.

Series [4] deals with S. cerevisiae. As to the kind of experiment: Potentiation assay with zeocin. The class given is cell-based. The following applies: assays attempted three times. The procedure:
as §1
The prepared test bacteria (50 µL) were placed in well A1–A12 of a 96-well plate. G418 (200 mg/mL, 108321-42-2, Nacalai tesque, Japan) in H2O, then medium […] was added to A1, pipetting was performed, and 50 µL was extracted from A1 and placed in A2. This operation was repeated until A11, and 50 µL extracted from A11 was discarded. After 30 min, Bk analogue (200 μg/mL) in medium […] was added to each solution (final concentration = 100 μg/mL). The well plate was closed and incubated at 30 °C. […]

Starred links: 1 amine or outer side, 2 acyl side, 3 side chain; linkers in the order of their positions; H or OH if unused. Positions of bridges follow the written chain, without caps; N, C: chain ends. Non-standard residues stand in square brackets, D forms with d. Residues, ends and D or L forms follow the SMILES beside them. *: point of attachment. X3 = CCCCCCCCCCC(=O)N[C@H](C(=O)NC[C@@H](CC(=O)[*:1])N[*:2])[C@@H](C)O; X2 = CCCCCCCCNC(=O)[C@H](O)[C@@H](O)C(=O)NC[C@@H](CC(=O)[*:1])N[*:2]; X6 = CCCCCCCCCCC(=O)N[C@@H](CO)C(=O)NC[C@@H](CC(=O)[*:1])N[*:2]; X8 = CCCCCCCCCCC(=O)N[C@H](CO)C(=O)NC[C@H](CC(=O)[*:1])N[*:2]; X9 = CCCCCCCCNC(=O)[C@H](O)[C@@H](O)C(=O)*; Orn = NCCC[C@H](N)C(=O)O Some results are limits rather than exact numbers.

As to micafungin, the MIC90 in the series with Candida albicans is recorded as 0.015 µg/mL. Consider `CN[C@@H]1[C@@H](O)[C@@H](O[C@@H]2[C@@H](O)[C@H](O[C@H]3O[C@H]([C@@H](C)O)[C@@H](O)[C@H](O)[C@H]3N)[C@@H](N)C[C@H]2N)OC[C@]1(C)O` [Compound G418, G418, reference compound], for which, in the series with S. cerevisiae [1] (Saccharomyces cerevisiae, 24 h, read-out: MIC of G418 alone), the MIC came to 25000 µg/mL. As for `CCCCCCCCNC(=O)[C@H](O)[C@@H](O)C(=O)NC[C@H]1CC(=O)N[C@H](CO)C(=O)N[C@H](Cc2ccc(O)cc2)C(=O)N[C@H](CC(N)=O)C(=O)NCC(=O)N[C@@H](CC(N)=O)C(=O)N[C@@H](CO)C(=O)N[C@@H](CC(N)=O)C(=O)N1` [Compound 5b, Cyclo-[(2R,3R)-2,3-dihydroxy-4-(octylamino)-4-oxobutanoic Acid-(R)-7-D-Ser-D-Tyr-D-Asn-Gly-Asn-Ser-Asn]] ([dS][dY][dN]GNSN; linker N-C via X2), in series [2], the tR is recorded as 6.4 min. Moreover, the MIC in series [3] was greater than 200 µg/mL. For the same molecule, the “potentiation of the effect of G418” value in the series with S. cerevisiae [1] is reported as “weak potentiating effects”. For `CCCCCCCCCCC(=O)N[C@H](C(=O)NC[C@H]1CC(=O)N[C@H](CO)C(=O)N[C@H](Cc2ccc(O)cc2)C(=O)N[C@H](CC(N)=O)C(=O)NCC(=O)N[C@@H](CC(N)=O)C(=O)N[C@@H](CO)C(=O)N[C@@H](CC(N)=O)C(=O)N1)[C@@H](C)O` [Compound 4b, Cyclo-[Undecanoic Acid-Thr-(R)-7-D-Ser-D-Tyr-D-Asn-Gly-Asn-Ser-Asn]] ([dS][dY][dN]GNSN; linker N-C via X3), in that order: 10.7 min, greater than 200 µg/mL and “weak potentiating effects”. `CCCCCCCCCCC(=O)N[C@H](CO)C(=O)NC[C@@H]1CC(=O)N[C@H](CO)C(=O)N[C@H](Cc2ccc(O)cc2)C(=O)N[C@H](CC(N)=O)C(=O)NCC(=O)N[C@@H](CC(N)=O)C(=O)N[C@@H](CO)C(=O)N[C@@H](CC(N)=O)C(=O)N1` [Compound 3c, Cyclo-[Undecanoic Acid-D-Ser-(S)-7-D-Ser-D-Tyr-D-Asn-Gly-Asn-Ser-Asn]] ([dS][dY][dN]GNSN; linker N-C via X8): the tR in series [2] amounted to 9.4 min. This molecule gave an MIC in series [3] greater than 200 µg/mL. On to caspofungin, for which, in the series on Candida albicans, the MIC90 was 0.25 µg/mL.

With `Cc1c(N)nc([C@H](CC(N)=O)NC[C@H](N)C(N)=O)nc1C(=O)N[C@H](C(=O)N[C@H](C)[C@@H](O)[C@H](C)C(=O)N[C@H](C(=O)NCCC1=N[C@@H](c2nc(C(=O)NCCCCN=C(N)N)cs2)CS1)[C@@H](C)O)[C@@H](O[C@@H]1O[C@@H](CO)[C@@H](O)[C@H](O)[C@@H]1O[C@H]1O[C@H](CO)[C@@H](O)[C@H](OC(N)=O)[C@@H]1O)c1cnc[nH]1` [zeocin], in the series on S. cerevisiae [4], the “MIC of zeocin alone” value was determined as 3130 µg/mL.

`CCCCCCCCCCC(=O)N[C@@H](CO)C(=O)NC[C@H]1CC(=O)N[C@H](CO)C(=O)N[C@H](Cc2ccc(O)cc2)C(=O)N[C@H](CC(N)=O)C(=O)NCC(=O)N[C@@H](CC(N)=O)C(=O)N[C@@H](CO)C(=O)N[C@@H](CC(N)=O)C(=O)N1` [Compound 3e, Cyclo-[Undecanoic Acid-Ser-(R)-7-D-Ser-D-Tyr-D-Asn-Gly-Asn-Ser-Asn]] ([dS][dY][dN]GNSN; linker N-C via X6): the tR in series [2] was 9.4 min. The same molecule gave an MIC in series [3] greater than 200 µg/mL. The corresponding values for `CCCCCCCCNC(=O)[C@H](O)[C@@H](O)C(=O)N[C@H]1CCCNC(=O)[C@H](CC(N)=O)NC(=O)[C@H](CO)NC(=O)[C@H](CC(N)=O)NC(=O)CNC(=O)[C@@H](CC(N)=O)NC(=O)[C@@H](Cc2ccc(O)cc2)NC(=O)[C@@H](CO)NC1=O` [Compound 8, Cyclo-[(2R,3R)-2,3-Dihydroxy-4-(octylamino)-4-oxobutanoic Acid-Orn-D-Ser-D-Tyr-D-Asn-Gly-Asn-Ser-Asn]] (X9-[Orn][dS][dY][dN]GNSN; lactam 1-C) are 5.8 min and greater than 200 µg/mL.
